Experimental data reported in PMC5954141, “Structure-guided Discovery of Dual-recognition Chemibodies” (Scientific Reports, 2018).
Like-named read-outs stand apart in the source and are kept apart here.

Molecular target: T1, DPP-IV enzyme (Rattus norvegicus, UniProt P14740)
T1 construct: made in house
Assay: DPP-IV dipeptide (Ala-Pro-AFC) cleavage inhibition, fluorescent assay
Assay type: biochemical
Procedure: DPP-IV catalytic activity and inhibition of dipeptide cleavage was measured using a fluorescent assay performed at room temperature in 384-well, black polypropylene microplates. […] Assay data shown in Fig. 3 were performed with a one-hour incubation time. The data were fit to the four-parameter model using a Levenburg–Marquardt nonlinear regression algorithm. Figure 3b,c were generated using GraphPad Prism v6.
Rat DPP-IV enzyme and Fab mutant proteins were expressed and purified as previously described. […] For x-ray diffraction data collection, crystals were transferred into well solution with 30% (w/v) ethylene glycol and then flash frozen in liquid nitrogen.

[1] = Table S6, Ala-Pro-AFC at 10 µM, one-hour incubation, triplicate, read-out: measured IC50's
[2] = dipeptide substrate cleavage, read-out: DPP-IV IC50

T1 sequence (P14740 whole entry): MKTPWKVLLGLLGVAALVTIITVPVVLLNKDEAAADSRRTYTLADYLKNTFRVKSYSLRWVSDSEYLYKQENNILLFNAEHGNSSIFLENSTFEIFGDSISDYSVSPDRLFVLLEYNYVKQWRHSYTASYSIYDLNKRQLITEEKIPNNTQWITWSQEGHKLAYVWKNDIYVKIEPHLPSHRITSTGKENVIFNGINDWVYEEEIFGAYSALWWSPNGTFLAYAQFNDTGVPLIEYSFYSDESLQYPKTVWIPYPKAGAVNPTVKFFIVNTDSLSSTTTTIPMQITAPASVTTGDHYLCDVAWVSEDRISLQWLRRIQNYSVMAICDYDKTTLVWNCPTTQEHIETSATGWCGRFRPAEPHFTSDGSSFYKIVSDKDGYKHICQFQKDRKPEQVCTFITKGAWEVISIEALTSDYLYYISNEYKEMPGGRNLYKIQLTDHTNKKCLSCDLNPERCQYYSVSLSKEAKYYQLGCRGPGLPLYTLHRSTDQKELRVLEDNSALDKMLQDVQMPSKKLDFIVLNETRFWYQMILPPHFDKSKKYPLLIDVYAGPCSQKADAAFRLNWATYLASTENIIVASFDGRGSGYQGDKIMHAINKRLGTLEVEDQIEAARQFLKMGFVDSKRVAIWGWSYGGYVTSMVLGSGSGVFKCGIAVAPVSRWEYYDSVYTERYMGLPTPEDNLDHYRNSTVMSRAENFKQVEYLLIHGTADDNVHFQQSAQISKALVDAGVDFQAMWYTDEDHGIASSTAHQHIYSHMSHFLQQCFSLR

IC50 [1]	IC50 [2]	potency loss as compared with sitagliptin (same experimental conditions)	SMILES
152 nM			CC(=O)NCCOCCOCCOCCOCCOCCOCCOCCOCCOCCOCCNC(=O)CN1CCN(C(=O)C[C@H](N)Cc2cc(F)c(F)cc2F)CC1 [compound 6 (n = 10)]
	70 nM		COCCOCCOCCOCCOCCOCCOCCOCCNC(=O)CN1CCN(C(=O)C[C@H](N)Cc2cc(F)c(F)cc2F)CC1 [compound 4 (n = 7)]
146 nM			CC(=O)NCCOCCOCCOCCOCCOCCNC(=O)CN1CCN(C(=O)C[C@H](N)Cc2cc(F)c(F)cc2F)CC1 [compound 6 (n = 5)]
134 nM			CC(=O)NCCOCCOCCOCCOCCOCCOCCOCCNC(=O)CN1CCN(C(=O)C[C@H](N)Cc2cc(F)c(F)cc2F)CC1 [compound 6 (n = 7)]
124 nM			CC(=O)NCCOCCOCCOCCOCCOCCOCCOCCOCCNC(=O)CN1CCN(C(=O)C[C@H](N)Cc2cc(F)c(F)cc2F)CC1 [compound 6 (n = 8)]
119 nM			CC(=O)NCCOCCOCCOCCOCCOCCOCCNC(=O)CN1CCN(C(=O)C[C@H](N)Cc2cc(F)c(F)cc2F)CC1 [compound 6 (n = 6)]
100 nM			CC(=O)NCCOCCOCCOCCOCCNC(=O)CN1CCN(C(=O)C[C@H](N)Cc2cc(F)c(F)cc2F)CC1 [compound 6 (n = 4)]
	130 nM	seven-fold	CNC(=O)CN1CCN(C(=O)C[C@H](N)Cc2cc(F)c(F)cc2F)CC1.Cl [compound 2, (R)-2-(4-(3-amino-4-(2,4,5-trifluorophenyl)butanoyl)piperazin-1-yl)-N-methylacetamide hydrochloride]
160 nM			CC(=O)NCCOCCOCCOCCOCCOCCOCCOCCOCCOCCOCCOCCNC(=O)CN1CCN(C(=O)C[C@H](N)Cc2cc(F)c(F)cc2F)CC1 [compound 6 (n = 11)]
141 nM			CC(=O)NCCOCCOCCOCCNC(=O)CN1CCN(C(=O)C[C@H](N)Cc2cc(F)c(F)cc2F)CC1 [compound 6 (n = 3)]
	105 nM		COCCOCCOCCOCCNC(=O)CN1CCN(C(=O)C[C@H](N)Cc2cc(F)c(F)cc2F)CC1 [compound 4 (n = 3)]
